From patent publication US20250275976A1, “Methods of Treating Neuroinflammatory Conditions” (Athira Pharma, Inc., priority 2022, published 2025)
Entries after “also recorded” stand apart in the source; their conditions may differ.

System: male CD-1 mice
Test: T-maze spontaneous alternation, LPS-induced cognitive deficit
Type: in vivo, mouse
Settings: for Reversal of LPS-induced cognitive deficit in T-maze (result in words): ANOVA, Fisher's PLSD, p<0.05, doses as in the value; for Spontaneous alternation (%) Mean: LPS 250 μg/kg i.p.; for Recovery (%): saline/vehicle = 100%, LPS/vehicle = 0%
Source text: Encephalitis refers to inflammation of the brain that may result in brain swelling fever, headache, confusion, and seizures. The source of neuroinflammation can vary widely, including due to viral, bacterial, parasitic, or fungal infection or due to autoimmune diseases. Lipopolysaccharide (LPS) is a bacterial endotoxin that induces an intense neuroinflammatory reaction and has been associated with cognitive decline. The ability of Compound A19 to reverse cognitive decline induced by LPS in a mouse model of encephalitis was studied using a T-maze assay. In a separate substantially similar assay, Compounds 1a and 5a were also assessed.
Spontaneous and continuous alternation is the innate tendency of rodents to alternate free choices in a T-maze (T-CAT) over a series of successive runs. This sequential procedure relies on working memory and is sensitive to various pharmacological manipulations affecting memory processes. The present studies were conducted to evaluate the abilities of Compound A19, Compound 1a and Compound 5a to reverse LPS-induced cognitive deficit in the T-maze assay.
Compound A19 was dissolved in 0.9% NaCl (saline) and vortexed periodically until complete dissolution and with the pH adjusted between 7.4 and 7.8. Compound A19 was used in concentrations of 0.125, 0.1, 0.05, 0.025 and 0.0125 mg/ml which when given in a volume of 10 ml/kg result in doses of 1.25, 1, 0.5, 0.25 and 0.125 mg/kg, respectively. Compound 1a was dissolved at 160 mg/ml in 100% DMSO and vortexed until complete dissolution. Then the above stock solution was diluted in 20% PEG-400 and 78% 0.9% NaCl, whereby the stock solution comprised 2% of the final solution. Compound 1a was used in concentrations of 0.05, 0.2, 0.8, 1.6 and 3.2 mg/ml which when given in a volume of 10 ml/kg result in doses of 0.5, 2, 8, 16 and 32 mg/kg, respectively. Compound 5a was dissolved at 100 mg/ml in 100% DMSO and vortexed until complete dissolution. Then the above stock solution was diluted in 20% PEG-400 and 78% 0.9% NaCl, whereby the stock solution comprised 2% of the final solution. Compound 5a was used in concentrations of 0.125, 0.25, 0.5, 1 and 2 mg/ml which when given in a volume of 10 ml/kg result in doses of 1.25, 2.5, 5, 10 and 20 mg/kg, respectively.
Memantine was dissolved in saline. Memantine was used in concentration of 0.1 and 0.01 mg/ml, which when given in a volume of 10 ml/kg result in a dose of 1 and 0.1 mg/kg, respectively. Memantine is approved for symptomatic treatment of Alzheimer's disease was used as a reference compound.
LPS was dissolved in saline and prepared at a concentration of 0.0125 mg/ml and given intraperitoneally (i.p.) at a dosage volume of 20 ml/kg to yield a dose of 0.25 mg/kg ([…]).
Four to five weeks old male CD-1 mice (Janvier; Le Genest St Isle - France) were used for the study.
LPS was injected i.p. 2 weeks prior the T-maze trial. Compound 1a was tested at doses of 0.5, 2, 8, 16, and 32 mg/kg administered orally (p.o.) for 14 days with last treatment given 60 min before the T-maze trial. Compound 5a was tested at the doses of 1.25, 2.5, 5, 10, and 20 mg/kg administered orally (p.o.) for 14 days with last treatment given 60 min before the T-maze trial. LPS was injected i.p. 2 weeks prior the T-maze trial.
The T-maze apparatus was made of gray Plexiglas with a main stem (55 cm long×10 cm wide×20 cm high) and two arms (30 cm long×10 cm wide×20 cm high) positioned at a 90-degree angle relative to the main stem. A start box (15 cm long×10 cm wide) was separated from the main stem by a guillotine door. Horizontal doors were also provided to close specific arms during the force choice alternation task.
The experimental protocol consisted of a single session, which started with one “forced-choice” trial, followed by 14 “free-choice” trials. In the “forced-choice” trial, the animal was confined 5 seconds in the start arm and was then released while either the left or right goal arm was blocked by a horizontal door. […]

CCC(C)CN1CC2N(C(=O)c3ccc(C(F)(F)F)cc3)CCC(=O)N2[C@@H](C)C1=O (some centres unmarked) [Compound 1a]
Reversal of LPS-induced cognitive deficit in T-maze (result in words): significant reversal of LPS-induced cognitive deficits at 2 mg/kg; also recorded: trending at 8 and 32 mg/kg; also recorded: reversed the LPS-induced cognitive disruption | Spontaneous alternation (%) Mean (Compound 1a 0.5 mg/kg p.o. daily 14 days): 49% | Spontaneous alternation (%) Mean (Compound 1a 0.5 mg/kg p.o. daily 14 days, listed as Cmpd 1a): 48.6% | Recovery (%) (Compound 1a 0.5 mg/kg p.o.): 17% | Spontaneous alternation (%) Mean (Compound 1a 2 mg/kg p.o. daily 14 days): 59% | Spontaneous alternation (%) Mean (Compound 1a 2 mg/kg p.o. daily 14 days, listed as Cmpd 1a): 58.6% | Recovery (%) (Compound 1a 2 mg/kg p.o.): 56% | Spontaneous alternation (%) Mean (Compound 1a 8 mg/kg p.o. daily 14 days): 56% | Spontaneous alternation (%) Mean (Compound 1a 8 mg/kg p.o. daily 14 days, listed as Cmpd 1a): 56.4% | Recovery (%) (Compound 1a 8 mg/kg p.o.): 47% | Spontaneous alternation (%) Mean (Compound 1a 16 mg/kg p.o. daily 14 days): 51% | Spontaneous alternation (%) Mean (Compound 1a 16 mg/kg p.o. daily 14 days, listed as Cmpd 1a): 51.4% | Recovery (%) (Compound 1a 16 mg/kg p.o.): 28% | Spontaneous alternation (%) Mean (Compound 1a 32 mg/kg p.o. daily 14 days): 56% | Spontaneous alternation (%) Mean (Compound 1a 32 mg/kg p.o. daily 14 days, listed as Cmpd 1a): 55.7% | Recovery (%) (Compound 1a 32 mg/kg p.o.): 44%

CCC(C)CN1CC2N(Cc3ccc(C(F)(F)F)cc3)CCC(=O)N2[C@@H](C)C1=O (some centres unmarked) [Compound 5a]
Reversal of LPS-induced cognitive deficit in T-maze (result in words): significant reversal of LPS-induced cognitive deficits at all doses; also recorded: reversed the LPS-induced cognitive disruption | Spontaneous alternation (%) Mean (Compound 5a 1.25 mg/kg p.o. daily 14 days): 59% | Spontaneous alternation (%) Mean (Compound 5a 1.25 mg/kg p.o. daily 14 days, listed as Cmpd 5a): 59.3% | Recovery (%) (Compound 5a 1.25 mg/kg p.o.): 58% | Spontaneous alternation (%) Mean (Compound 5a 2.5 mg/kg p.o. daily 14 days): 58% | Spontaneous alternation (%) Mean (Compound 5a 2.5 mg/kg p.o. daily 14 days, listed as Cmpd 5a): 57.9% | Recovery (%) (Compound 5a 2.5 mg/kg p.o.): 53% | Spontaneous alternation (%) Mean (Compound 5a 5 mg/kg p.o. daily 14 days): 61% | Spontaneous alternation (%) Mean (Compound 5a 5 mg/kg p.o. daily 14 days, listed as Cmpd 5a): 60.7% | Recovery (%) (Compound 5a 5 mg/kg p.o.): 64% | Spontaneous alternation (%) Mean (Compound 5a 10 mg/kg p.o. daily 14 days): 58% | Spontaneous alternation (%) Mean (Compound 5a 10 mg/kg p.o. daily 14 days, listed as Cmpd 5a): 57.9% | Recovery (%) (Compound 5a 10 mg/kg p.o.): 53% | Spontaneous alternation (%) Mean (Compound 5a 20 mg/kg p.o. daily 14 days): 60% | Spontaneous alternation (%) Mean (Compound 5a 20 mg/kg p.o. daily 14 days, listed as Cmpd 5a): 60.0% | Recovery (%) (Compound 5a 20 mg/kg p.o.): 61%
